From the NIST ThermoML archive (doi:10.1021/je0496995)

Experiment: mn = molality of the nth substance listed, in mol/kg
Settings: Liquid; for viscosity: 101.3 kPa, Capillary tube (Ostwald / Ubbelohde) method; for mass density: 101.33 kPa, Pycnometric method

O=C(O)c1cccnc1 [3-carboxylpyridine] + Cc1cccnc1
Settings	mass density [kg/m3]	viscosity [mPa·s]
293.15 K, m1 = 0.02469	956.7	0.9504
293.15 K, m1 = 0.107	959.5	0.9659
293.15 K, m1 = 0.2134	964.1	0.9908
293.15 K, m1 = 0.319	969.5	1.015
293.15 K, m1 = 0.424	975.8	1.05
293.15 K, m1 = 0.5284	983	1.107
303.15 K, m1 = 0.02469	947.3	0.8363
303.15 K, m1 = 0.107	950.1	0.8514
303.15 K, m1 = 0.2134	954.6	0.8764
303.15 K, m1 = 0.319	960	0.9018
303.15 K, m1 = 0.424	966.4	0.9368
303.15 K, m1 = 0.5284	973.5	0.9891
313.15 K, m1 = 0.02469	938.4	0.7399
313.15 K, m1 = 0.107	941.2	0.7553
313.15 K, m1 = 0.2134	945.7	0.7804
313.15 K, m1 = 0.319	951	0.8048
313.15 K, m1 = 0.424	957.5	0.8396
313.15 K, m1 = 0.5284	964.7	0.8961
323.15 K, m1 = 0.02469	929	0.661
323.15 K, m1 = 0.107	931.8	0.6762
323.15 K, m1 = 0.2134	936.3	0.7014
323.15 K, m1 = 0.319	941.5	0.7265
323.15 K, m1 = 0.424	947.8	0.7613
323.15 K, m1 = 0.5284	955.2	0.8173
333.15 K, m1 = 0.02469	920	0.5981
333.15 K, m1 = 0.107	922.8	0.6134
333.15 K, m1 = 0.2134	927.2	0.6381
333.15 K, m1 = 0.319	932.5	0.6632
333.15 K, m1 = 0.424	938.7	0.6983
333.15 K, m1 = 0.5284	946.2	0.7541
343.15 K, m1 = 0.02469	911	0.5434
343.15 K, m1 = 0.107	913.8	0.5594
343.15 K, m1 = 0.2134	918.2	0.5833
343.15 K, m1 = 0.319	923.5	0.6086
343.15 K, m1 = 0.424	929.7	0.6431
343.15 K, m1 = 0.5284	937.2	0.6997
